# ChEMBL document CHEMBL5344418, “Recent developments in antimalarial activities of 4-aminoquinoline derivatives” (Eur J Med Chem, 2023)
# Key:
# [1] = test system: Plasmodium falciparum; experiment: Antiplasmodial activity against Plasmodium falciparum 3D7 assessed as inhibition of parasitic growth; assay type: functional, organism-based
# [2] = test system: Plasmodium falciparum; experiment: Antimalarial activity against Plasmodium falciparum Dd2 assessed as reduction in parasitic growth; assay type: functional, organism-based
# [3] = test system: Plasmodium falciparum; experiment: Antimalarial activity against Plasmodium falciparum assessed as parasitic growth inhibition; assay type: functional, organism-based
# [4] = test system: Plasmodium falciparum; experiment: Antiplasmodial activity against Plasmodium falciparum Dd2 infected in human Erythrocyte measured after 72 hrs by SYBR green fluorescence dye based microplate reader analysis; assay type: functional, organism-based
# [5] = test system: Plasmodium falciparum; experiment: Antiplasmodial activity against chloroquine-sensitive Plasmodium falciparum 3D7 infected in human erythrocyte incubated for 72 hrs by SYBR green I staining based fluorescence assay; assay type: functional, organism-based; conditions: 3D7, Erythrocyte
# [6] = test system: Plasmodium falciparum; experiment: Antimalarial activity against Plasmodium falciparum 3D7 assessed as inhibition of parasite growth; assay type: functional, organism-based
# [7] = test system: Plasmodium falciparum; experiment: Antimalarial activity against CQ-resistant Plasmodium falciparum RKL9; assay type: functional, organism-based
# [8] = test system: Plasmodium falciparum; experiment: Antimalarial activity against chloroquine-sensitive Plasmodium falciparum NF54 assessed as reduction in cell growth; assay type: functional, organism-based
# [9] = test system: Plasmodium falciparum; experiment: Antimalarial activity against chloroquine-resistant Plasmodium falciparum K1 assessed as reduction in cell growth; assay type: functional, organism-based
# [10] = test system: Plasmodium berghei; experiment: Antimalarial activity against Plasmodium berghei ANKA; assay type: functional, organism-based
# [11] = test system: Plasmodium falciparum; experiment: Antiplasmodial activity against Plasmodium falciparum NF54; assay type: functional, organism-based
# [12] = Cytotoxicity against African green monkey Vero cells by MTT assay; assay type: toxicity, cell-based; conditions: African green monkey (Chlorocebus sabaeus)
# [13] = test system: HepG2; experiment: Cytotoxicity against human HepG2 cells assessed as reduction in cell viability incubated for 24 hrs by MTT assay; assay type: functional
# [14] = test system: Plasmodium falciparum; experiment: Antimalarial activity against chloroquine-sensitive Plasmodium falciparum 3D7 assessed as reduction in parasite growth incubated for 48 hrs by SYBR green assay; assay type: functional, organism-based; conditions: 3D7, 48 h
# [15] = test system: Plasmodium falciparum; experiment: Antimalarial activity against multi-drug resistant Plasmodium falciparum K1 assessed as reduction in parasite growth incubated for 48 hrs by SYBR green assay; assay type: functional, organism-based; conditions: K1, 48 h
# [16] = test system: Plasmodium falciparum; experiment: Antimalarial activity against Plasmodium falciparum 3D7 assessed as reduction in parasite growth incubated for 48 hrs by Giemsa-staining counting based microscopic analysis; assay type: functional, organism-based; conditions: 3D7, 48 h
# [17] = Cytotoxicity against African green monkey Vero cells assessed as reduction in cell viability incubated for 48 hrs by MTT assay; assay type: toxicity, cell-based; conditions: chlorocebus sabaeus
# [18] = test system: Plasmodium falciparum; experiment: Antimalarial activity against Plasmodium falciparum K1 assessed as reduction in parasitic growth incubated for 48 hrs by Giemsa-staining counting based microscopic analysis; assay type: functional, organism-based; conditions: K1, 48 h
# [19] = test system: Plasmodium falciparum; experiment: Antiplasmodial activity against chloroquine-sensitive Plasmodium falciparum 3D7 assessed as parasitic growth inhibition incubated for 72 hrs by SYBR Green staining based fluorescence analysis; assay type: functional, organism-based; conditions: 3D7, 72 h
# [20] = test system: Plasmodium falciparum; experiment: Antiplasmodial activity against chloroquine-resistant Plasmodium falciparum W2 assessed as parasitic growth inhibition incubated for 72 hrs by SYBR Green staining based fluorescence analysis; assay type: functional, organism-based; conditions: W2, 72 h
# [21] = Cytotoxicity against African green monkey Vero cells assessed as reduction in cell viability measured after 24 hrs; assay type: toxicity, cell-based; conditions: African green monkey (Chlorocebus sabaeus)
# [22] = Cytotoxicity against African green monkey Vero cells; assay type: toxicity, cell-based; conditions: chlorocebus sabaeus
# [23] = test system: Plasmodium falciparum; experiment: Antimalarial activity against Plasmodium falciparum W2 assessed as reduction in parasite growth incubated for 48 hrs by LDH assay; assay type: functional, organism-based; conditions: W2, 48 h
# [24] = test system: Plasmodium falciparum; experiment: Antimalarial activity against Plasmodium falciparum D6 assessed as reduction in parasite growth incubated for 48 hrs by LDH assay; assay type: functional, organism-based; conditions: D6, 48 h
# [25] = test system: Plasmodium falciparum; experiment: Antimalarial activity against chloroquine-sensitive Plasmodium falciparum 3D7 by SYBR green I assay; assay type: functional, organism-based
# [26] = test system: Plasmodium falciparum; experiment: Antimalarial activity against chloroquine-resistant Plasmodium falciparum Dd2 assessed as reduction in parasitic growth incubated for 72 hrs by Giemsa-staining based microscopic analysis; assay type: functional, organism-based; conditions: Dd2, 72 h
# [27] = test system: Plasmodium falciparum; experiment: Antiplasmodial activity against Plasmodium falciparum 3D7 infected in human erythrocytes assessed as growth inhibition after 72 hrs by SYBR Gren-I fluorescent dye based method; assay type: functional, organism-based; conditions: 3D7, 72 h
# [28] = test system: HepG2; experiment: Cytotoxicity against human HepG2 cells assessed as cell growth inhibition measured after 72 hrs by MTT assay; assay type: functional
# [29] = test system: Plasmodium falciparum; experiment: Antimalarial activity against drug sensitive Plasmodium falciparum NF54 assessed as inhibition of parasite growth; assay type: functional, organism-based
# [30] = test system: Plasmodium falciparum; experiment: Antimalarial activity against Plasmodium falciparum K1 assessed as inhibition of parasitic growth; assay type: functional, organism-based
# [31] = test system: Plasmodium falciparum; experiment: Antimalarial activity against chloroquine resistant Plasmodium falciparum FcB1/Colombia assessed as inhibition of parasite growth incubated for 24 hrs by liquid scintillation spectrometer analysis; assay type: functional, organism-based
smiles,measurement,setting,value
CN(CCCCCCCCNc1ccnc2ccccc12)Cc1ccc(-c2ccc(-c3ccc(C#N)cc3)s2)cc1,IC50,[1],120 nM
same,IC50,[2],71.5 nM
N#Cc1ccc(-c2ccc(-c3ccc(CNCCCCCCCCNc4ccnc5cc(Cl)ccc45)cc3)s2)cc1,IC50,[1],97.3 nM
same,IC50,[2],174 nM
CC(CCCNCc1ccc(-c2csc3ccc(F)cc23)cc1)Nc1ccnc2cc(Cl)ccc12 (stereo unspecified),IC50,[1],82.3 nM
same,IC50,[2],187 nM
Fc1ccc2scc(-c3ccc(CNCCCNc4ccnc5ccccc45)cc3)c2c1,IC50,[1],18.8 nM
same,IC50,[2],73.3 nM
Clc1ccc2c(Nc3ccncc3)ccnc2c1,IC50,[3],4230 nM
C[C@H]1[C@H](OC(=O)CCC(=O)NCCNc2ccnc3cc(Cl)ccc23)O[C@@H]2O[C@@]3(C)CC[C@H]4[C@H](C)CC[C@@H]1[C@@]24OO3,EC50,[4],1 nM
same,EC50,[5],2.7 nM
COc1cc(/C=N/Nc2ccnc3cc(Cl)ccc23)ccc1O,IC50,[6],9 nM
same,IC50,[7],9 nM
C#Cc1ccc(-c2cn(CCNc3ccnc4cc(Cl)ccc34)nn2)cc1F,IC50,[8],150 nM
C#Cc1ccc(-c2cn(CCNc3ccnc4cc(Cl)ccc34)nn2)c(F)c1,IC50,[9],210 nM
same,IC50,[8],190 nM
C#Cc1ccc(-c2cn(CCNc3ccnc4cc(Cl)ccc34)nn2)cc1,IC50,[9],180 nM
COc1cc2c(cc1OC)CC(Nc1ccnc3cc(Cl)ccc13)C2,IC50,[10],390 nM
O=C(NCCCNc1ccnc2cc(Cl)ccc12)C(=O)Nc1cc2c(cc1Cl)-c1ccccc1C2,IC50,[11],437 nM
same,IC50,[12],26000 nM
CCN(CC)CC#CCNc1ccnc2cc(Cl)ccc12,MLD50,[13],1481 µM
same,IC50,[14],46 nM
same,IC50,[15],50 nM
CC1(C)c2ccccc2-c2cc(Cl)c(NC(=O)C(=O)NCCCNc3ccnc4cc(Cl)ccc34)cc21,IC50,[11],326 nM
same,IC50,[12],17700 nM
CCOC(=O)c1nn(CCNc2ccnc3cc(Cl)ccc23)c2c1C(C(C)C)C(C#N)=C(N)O2 (stereo unspecified),EC50,[16],3390 nM
same,CC50 at 48 h,[17],86100 nM
same,EC50,[18],300 nM
Clc1ccc2c(NNc3ccncc3)ccnc2c1,IC50,[3],3750 nM
OB1OCc2ccc(OCc3cn(CCNc4ccnc5cc(Cl)ccc45)nn3)cc21,IC50,[19],4150 nM
same,IC50,[20],3780 nM
same,IC50 at 24 h,[21],> 100000 nM
N=C(N=C(N)N)SCCCNc1ccnc2cc(Cl)ccc12,CC50,[22],> 11400 nM
same,IC50,[23],2130 nM
O=C(CNCCCNc1ccnc2cc(Cl)ccc12)Nc1cc2c(cc1Cl)-c1ccccc1C21CCCC1,IC50,[11],204 nM
same,IC50,[12],12500 nM
N=C(N=C(N)N)SCCCCNc1cc(C(F)(F)F)nc2c(C(F)(F)F)cccc12,IC50,[24],> 8930 nM
same,CC50,[22],> 8930 nM
same,IC50,[23],> 8930 nM
CCCCCCCC(=O)NCCCC(C)Nc1ccnc2cc(Cl)ccc12 (stereo unspecified),IC50,[25],51 nM
same,IC50,[26],109000 nM
O=C(O)CNc1ccnc2cc(Cl)ccc12,MLD50,[13],>1000 µM
same,IC50,[14],> 10000 nM
same,IC50,[15],> 10000 nM
CCCC(=O)NCCCC(C)Nc1ccnc2cc(Cl)ccc12 (stereo unspecified),IC50,[25],627 nM
same,IC50,[26],588000 nM
CCOC(=O)c1nn(CCNc2ccnc3cc(Cl)ccc23)c2c1C(c1ccccc1)C(C#N)=C(N)O2 (stereo unspecified),EC50,[16],190 nM
same,CC50 at 48 h,[17],103000 nM
same,EC50,[18],250 nM
C[C@H](Cc1ccccc1)Nc1ccnc2cc(Cl)ccc12,IC50,[10],490 nM
CC1(C)[C@@H]2CC=C(CC(=O)Nc3ccnc4cc(Cl)ccc34)[C@H]1C2,EC50,[27],17100 nM
same,CC50,[28],14300 nM
same,EC50,[29],21400 nM
same,EC50,[30],7840 nM
N=C(N=C(N)N)SCCNc1cc(C(F)(F)F)nc2c(C(F)(F)F)cccc12,IC50,[24],7550 nM
same,CC50,[22],> 9420 nM
same,IC50,[23],8040 nM
CCOP(=O)(CCCN(O)C(=O)CCC(=O)N1CCN(c2ccnc3cc(Cl)ccc23)CC1)OCC,IC50,[31],2700 nM
OB1OCc2ccc(OCc3cn(CCCNc4ccnc5cc(Cl)ccc45)nn3)cc21,IC50,[19],4130 nM
same,IC50,[20],3910 nM
same,IC50 at 24 h,[21],> 100000 nM
